The target in experiment [1] is T1, NIH-3T3 cells overexpressing human IGF-1R (Homo sapiens, UniProt P08069).
T1 construct: expressed in transfected cells; host or cells: NIH-3T3 (mouse fibroblasts)
Nature of the experiment: IGF-1R cellular autophosphorylation (DELFIA). It counts as cell-based. As to the method:
NIH-3T3 cells overexpressing human IGF-1R or IR were plated in 96-well plates (10,000 cells/well) in culture media containing 10% fetal bovine serum and incubated at 37° C. in a 5% CO2 incubator. Twenty four hours post-plating, cells were treated with different concentrations of test compounds ranging from 30 uM to 1.5 nM. Two hours after compound addition, cells were stimulated with either human IGF-1 (30 ng/ml) or insulin (3 ug/ml) for 15 minutes. Cell lysates are analyzed for phosphorylated receptors using dissociation enhanced lanthanide fluor-immuno assay (DELFIA) with anti-IGF-1R (MAB391, R&D Systems, Minneapolis, Minn.) or anti-IRβ (sc-711, Santa Cruz Biotechnology, Santa Cruz, Calif.) capture antibody and europium-labeled anti-pTyr antibody (Eu-N1 PT66, Perkin Elmer, Waltham, Mass.) for detection. The fluorescence signal for cells treated with compounds was expressed as percent relative to 100% stimulation (IGF-1 or insulin stimulated signal).

Another experiment addresses T2, human IR (hIR) (Homo sapiens, UniProt P06213).
T2 construct: containing amino acid residues 979-1382 of human IR; made in house; host or cells: Sf9 cells (baculovirus), same process as hIGF1R
Description: TR-FRET kinase assay of purified hIR. In kind it is biochemical. Conditions: activated hIR 0.5 nM, 10 μM ATP, values given as pIC50 category. As to the method:
(§1) Time Resolved Fluorescence Resonance Energy Transfer (TR-FRET) assays were carried out on the exemplified compounds as follows:
(§2) Purity is determined by HPLC. The calculated molecular mass of the peptide is 2216 dalton. Tyrosine phosphorylation by human IGF1R (hIGF1R) or human IR (hIR) occurs as indicated (Y*) in the peptide sequence described. Solid peptide sample is dissolved to approximately 1 mM in DMSO, aliquoted, and stored at −20° C. until use. True peptide concentration is determined by amino acid analysis.
hIR: GST-rTEV-IR(979-1382) containing amino acid residues 979-1382 of human IR (as annotated by NCBI accession number NP_000199) is expressed and purified by the same process as hIGF1R. […] Samples, in 25 mM Tris-HCl, 250 mM NaCl, 5% glycerol, 1 mM DTT, pH 7.5, are stored at −80° C. until use.
hIR: Activation of GST-rTEV-IGF-1R(957-1367) is achieved by a 5 minute incubation of hIR (2.7 μM final) with 2 mM ATP in 100 mM HEPES, 10 mM MgCL2, 0.1 mg/ml BSA, at room temperature. Autophosphorylation is stopped by addition of EDTA (to 100 mM final). Aliquoted samples are flash frozen in liquid nitrogen and stored at −80° C. until use.
(§3) Assays are performed in 384-well (Greiner, Catalog No. 784076) microtiter plates. Reaction buffer (50 mM HEPES buffer, pH 7.5; 10 mM MgCL2; 3 mM DTT; 1 mM CHAPS; 0.1 mg/ml BSA) for peptide phosphorylation (10 μl volume) contained, in final concentrations, 500 nM biotinylated peptide substrate; 10 μM ATP; and purified, activated hIGF1R or hIR (0.5 nM). Compounds, titrated in DMSO, are evaluated at eleven concentrations ranging from 50 μM to 0.2 nM. […] Reactions are incubated for 1 hour at room temperature and are stopped by a 5 μl addition of EDTA (to 33 mM). A further addition of 5 μl detection reagents (for final 7 nM Streptavidin-APC (Perkin Elmer #CR^130-150), 1 nM Europium-labeled anti-phosphotyrosine monoclonal antibody (PerkinElmer #AD0067), added in reaction buffer (without DTT), is required for signal generation. After 30 minutes, signal is read on PerkinElmer Viewlux microplate imager or Wallac Victor fluorometer.
(§4) The data for compound concentration responses were plotted as % Inhibition, calculated with the data reduction formula 100*(1-[(U1-C2)/(C1-C2)]), versus concentration of compound, where • U is the unknown value, • C1 is the average control value obtained for DMSO only, and • C2 is the average control value obtained for reactions stopped with EDTA at • t=0.
(§5) Data were fitted to the curve described by: y=((Vmax*x)/(K+x)) where • Vmax is the upper asymptote and • K is the IC50.

The target in the next experiment is T3, human IGF1R (hIGF1R) (Homo sapiens, UniProt P08069).
T3 construct: containing amino acid residues 957-1367 of human IGF1R; made in house; host or cells: Sf9 cells (baculovirus)
Description: TR-FRET kinase assay of purified hIGF1R. In kind it is biochemical. The conditions noted are these: activated hIGF1R 0.5 nM, 10 μM ATP, values given as pIC50 category, read-out: IGF-1R pIC50 (converted). As for the experimental part: as §1, §2
hIGF1R: GST-rTEV-IGF-1R(957-1367) containing amino acid residues 957-1367 of human IGF1R (as annotated by National Center for Biotechnology Information (NCBI) accession number NP_000866) is purified from a baculovirus expression system in Sf9 cells using Glutathione Sepharose 4FF column chromatography followed by Sephadex-200 size exclusion column chromatography. […] Samples, in 25 mM Tris-HCl, 250 mM NaCl, 5% glycerol, 1 mM DTT, pH 7.5, are stored at −80° C. until use.
hIGF1R: Activation of GST-rTEV-IGF-1R(957-1367) is achieved by a 4 minute incubation of hIGF1R (2.7 μM final) with 2 mM ATP in 50 mM HEPES, 20 mM MgCL2, 0.1 mg/ml BSA, at room temperature. Autophosphorylation is stopped by addition of EDTA (to 100 mM final). Aliquoted samples are flash frozen in liquid nitrogen and stored at −80° C. until use.
as §3, §4, §5

In a further experiment the target is ALK (Homo sapiens, UniProt Q9UM73). Description: ALK enzyme assay (HTRF). In kind it is biochemical. The conditions noted are these: 0.25 nM ALK, 15.0 μM ATP, values given as pIC50 category. In outline: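 Isolated ALK phosphorylates a biotinylated tyrosine peptide, 120 min at 20° C; anti-phosphotyrosine Eu-cryptate/streptavidin-XL665 HTRF read after 60 min with EDTA-containing detection mix.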

The values that follow come from patent publication US7981903B2, “2-[2-{phenylamino}-1H-pyrrolo[2,3-D]pyrimidin-4-yl)amino] benzamide derivatives as IGF-1R inhibitors for the treatment of cancer” (GlaxoSmithKline LLC, priority 2007, dated 2011).

T3 sequence (P08069 957-1367): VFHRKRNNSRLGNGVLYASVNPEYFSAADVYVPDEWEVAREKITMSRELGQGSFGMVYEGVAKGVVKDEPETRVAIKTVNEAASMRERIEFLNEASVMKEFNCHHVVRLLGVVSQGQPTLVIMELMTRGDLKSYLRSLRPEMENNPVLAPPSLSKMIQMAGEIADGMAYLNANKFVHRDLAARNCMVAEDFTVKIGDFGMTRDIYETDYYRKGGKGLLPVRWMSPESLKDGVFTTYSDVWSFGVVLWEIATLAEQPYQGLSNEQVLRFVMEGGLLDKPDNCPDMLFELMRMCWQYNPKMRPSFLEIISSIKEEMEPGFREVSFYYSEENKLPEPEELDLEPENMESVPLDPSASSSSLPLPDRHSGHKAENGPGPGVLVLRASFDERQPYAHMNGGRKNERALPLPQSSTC
T1 sequence (P08069 31-1367): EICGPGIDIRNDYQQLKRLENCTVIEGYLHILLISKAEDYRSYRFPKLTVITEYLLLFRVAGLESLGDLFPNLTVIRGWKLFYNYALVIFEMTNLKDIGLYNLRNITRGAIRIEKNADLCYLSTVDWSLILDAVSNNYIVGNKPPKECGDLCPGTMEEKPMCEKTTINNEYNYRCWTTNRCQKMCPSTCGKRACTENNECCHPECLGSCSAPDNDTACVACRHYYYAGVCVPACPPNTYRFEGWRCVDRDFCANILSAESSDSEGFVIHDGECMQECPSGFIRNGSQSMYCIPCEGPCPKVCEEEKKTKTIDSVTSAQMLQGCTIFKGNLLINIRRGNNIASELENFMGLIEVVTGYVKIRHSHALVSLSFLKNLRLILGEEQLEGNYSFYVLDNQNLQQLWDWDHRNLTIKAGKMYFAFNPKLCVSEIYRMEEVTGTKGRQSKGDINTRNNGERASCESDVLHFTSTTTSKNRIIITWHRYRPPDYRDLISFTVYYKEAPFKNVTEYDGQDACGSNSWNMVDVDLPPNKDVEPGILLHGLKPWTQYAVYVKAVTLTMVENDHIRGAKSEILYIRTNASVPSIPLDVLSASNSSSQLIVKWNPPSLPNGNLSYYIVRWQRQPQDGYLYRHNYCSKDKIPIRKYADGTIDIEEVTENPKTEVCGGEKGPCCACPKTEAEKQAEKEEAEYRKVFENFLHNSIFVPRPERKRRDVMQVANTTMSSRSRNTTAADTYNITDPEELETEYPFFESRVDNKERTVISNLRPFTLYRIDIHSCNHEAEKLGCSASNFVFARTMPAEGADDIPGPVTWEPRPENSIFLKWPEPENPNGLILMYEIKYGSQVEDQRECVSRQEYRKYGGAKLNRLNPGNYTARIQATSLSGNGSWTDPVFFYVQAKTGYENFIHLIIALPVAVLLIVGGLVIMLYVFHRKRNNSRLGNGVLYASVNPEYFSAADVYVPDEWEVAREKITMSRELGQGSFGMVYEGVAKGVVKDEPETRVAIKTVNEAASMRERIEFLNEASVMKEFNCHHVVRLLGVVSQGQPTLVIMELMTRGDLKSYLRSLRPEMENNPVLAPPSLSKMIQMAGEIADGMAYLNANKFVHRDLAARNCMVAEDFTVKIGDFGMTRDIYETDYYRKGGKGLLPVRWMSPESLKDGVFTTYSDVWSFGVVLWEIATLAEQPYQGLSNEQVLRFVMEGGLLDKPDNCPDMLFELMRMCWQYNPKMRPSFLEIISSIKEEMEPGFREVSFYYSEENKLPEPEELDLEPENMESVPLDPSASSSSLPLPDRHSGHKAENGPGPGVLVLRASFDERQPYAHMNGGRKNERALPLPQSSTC
ALK, sequence (Q9UM73 19-1620): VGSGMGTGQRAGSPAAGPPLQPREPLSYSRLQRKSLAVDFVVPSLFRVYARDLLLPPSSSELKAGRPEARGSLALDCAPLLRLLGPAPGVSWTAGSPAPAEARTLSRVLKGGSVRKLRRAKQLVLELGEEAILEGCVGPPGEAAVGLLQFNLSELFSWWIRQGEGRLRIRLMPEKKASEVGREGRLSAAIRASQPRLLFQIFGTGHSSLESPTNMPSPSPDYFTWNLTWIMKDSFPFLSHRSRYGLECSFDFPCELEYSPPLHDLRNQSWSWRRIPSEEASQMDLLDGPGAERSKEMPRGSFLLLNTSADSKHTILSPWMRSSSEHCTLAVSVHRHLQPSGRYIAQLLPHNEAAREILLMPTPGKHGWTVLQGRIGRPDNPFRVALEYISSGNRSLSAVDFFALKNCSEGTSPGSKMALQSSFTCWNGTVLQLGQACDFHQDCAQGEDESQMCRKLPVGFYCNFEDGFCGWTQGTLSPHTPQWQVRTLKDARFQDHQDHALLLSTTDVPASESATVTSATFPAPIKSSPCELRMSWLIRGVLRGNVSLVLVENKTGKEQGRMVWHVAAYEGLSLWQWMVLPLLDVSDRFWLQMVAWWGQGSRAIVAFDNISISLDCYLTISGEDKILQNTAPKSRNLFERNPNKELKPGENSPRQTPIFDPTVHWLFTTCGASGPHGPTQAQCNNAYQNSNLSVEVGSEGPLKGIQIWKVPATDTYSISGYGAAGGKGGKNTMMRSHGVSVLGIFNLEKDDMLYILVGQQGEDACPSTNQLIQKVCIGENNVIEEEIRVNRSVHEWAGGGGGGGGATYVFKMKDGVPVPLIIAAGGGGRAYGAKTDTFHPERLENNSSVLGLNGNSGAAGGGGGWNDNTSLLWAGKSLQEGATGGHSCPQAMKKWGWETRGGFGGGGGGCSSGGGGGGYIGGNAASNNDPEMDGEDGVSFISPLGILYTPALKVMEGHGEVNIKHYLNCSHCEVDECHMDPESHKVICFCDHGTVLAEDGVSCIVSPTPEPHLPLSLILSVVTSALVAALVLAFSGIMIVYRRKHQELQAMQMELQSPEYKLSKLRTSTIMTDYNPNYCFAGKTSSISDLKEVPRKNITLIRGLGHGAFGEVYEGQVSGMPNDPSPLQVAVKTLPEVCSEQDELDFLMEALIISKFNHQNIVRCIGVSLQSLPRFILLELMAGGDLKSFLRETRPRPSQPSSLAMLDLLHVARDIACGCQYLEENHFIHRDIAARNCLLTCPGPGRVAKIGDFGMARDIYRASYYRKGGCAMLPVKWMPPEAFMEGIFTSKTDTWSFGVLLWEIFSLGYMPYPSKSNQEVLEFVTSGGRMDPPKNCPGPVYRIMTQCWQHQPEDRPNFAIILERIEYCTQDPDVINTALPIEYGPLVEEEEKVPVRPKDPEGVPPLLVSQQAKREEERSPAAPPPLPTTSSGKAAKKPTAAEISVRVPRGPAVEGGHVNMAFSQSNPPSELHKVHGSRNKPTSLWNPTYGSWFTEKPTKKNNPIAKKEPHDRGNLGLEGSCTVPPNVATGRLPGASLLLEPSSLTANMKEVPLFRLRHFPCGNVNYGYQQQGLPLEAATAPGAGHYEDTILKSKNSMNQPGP
T2 sequence (P06213 979-1382): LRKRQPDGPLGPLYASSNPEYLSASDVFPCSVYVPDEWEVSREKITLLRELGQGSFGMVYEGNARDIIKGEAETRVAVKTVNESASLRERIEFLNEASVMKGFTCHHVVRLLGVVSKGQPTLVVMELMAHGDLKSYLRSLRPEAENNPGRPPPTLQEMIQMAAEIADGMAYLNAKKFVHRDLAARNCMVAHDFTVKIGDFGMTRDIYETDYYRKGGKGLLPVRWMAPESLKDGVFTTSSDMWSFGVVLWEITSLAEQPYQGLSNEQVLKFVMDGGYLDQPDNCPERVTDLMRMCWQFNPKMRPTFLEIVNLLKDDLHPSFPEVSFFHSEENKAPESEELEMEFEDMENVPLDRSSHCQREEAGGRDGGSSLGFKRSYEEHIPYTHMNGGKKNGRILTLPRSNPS

As for `Cc1cc(N2CCOCC2)ccc1Nc1nc(Nc2ccccc2C(N)=O)c2cc[nH]c2n1` [Example 11, 2-[(2-{[2-methyl-4-(4-morpholinyl)phenyl]amino}-1H-pyrrolo[2,3-d]pyrimidin-4-yl)amino]benzamide], the IC50 in experiment [1] is 100 to 500 nM; at human IR (hIR), 1.26 to 3.98 nM; at human IGF1R (hIGF1R), 1.26 to 3.98 nM; against ALK, 1.26 to 3.98 nM.

As for `CNC(=O)c1ccccc1Nc1nc(Nc2ccc(C3=CCCN(C)C3)cc2OC)nc2[nH]ccc12` [Example 21, N-methyl-2-[(2-{[2-(methyloxy)-4-(1-methyl-1,2,5,6-tetrahydro-3-pyridinyl)phenyl]amino}-1H-pyrrolo[2,3-d]pyrimidin-4-yl)amino]benzamide], the IC50 in experiment [1] was 100 to 500 nM; at human IR (hIR), 0.251 to 1 nM; on human IGF1R (hIGF1R), 1.26 to 3.98 nM; on ALK, 0.251 to 1 nM.

On to `CNC(=O)c1ccccc1Nc1nc(Nc2ccc(C3CCCN(C)C3)cc2OC)nc2[nH]ccc12` (stereo not shown) [Example 22, N-methyl-2-[(2-{[2-(methyloxy)-4-(1-methyl-3-piperidinyl)phenyl]amino}-1H-pyrrolo[2,3-d]pyrimidin-4-yl)amino]benzamide], for which the IC50 in experiment [1] was 100 to 500 nM; against human IR (hIR), 0.251 to 1 nM; at human IGF1R (hIGF1R) it was 1.26 to 3.98 nM; against ALK it was 0.251 to 1 nM.

As for `CNC(=O)c1ccccc1Nc1nc(Nc2ccc(N3CCN(C(C)C)CC3)cc2OC)nc2[nH]ccc12` [Example 25, N-methyl-2-[(2-{[4-[4-(1-methylethyl)-1-piperazinyl]-2-(methyloxy)phenyl]amino}-1H-pyrrolo[2,3-d]pyrimidin-4-yl)amino]benzamide], the IC50 in experiment [1] was 100 to 500 nM; against human IR (hIR), 1.26 to 3.98 nM; at human IGF1R (hIGF1R) it was 1.26 to 3.98 nM; against ALK, 0.251 to 1 nM.

`Cc1ccc(NC(=O)CN(C)C)cc1Nc1nc(Nc2ccccc2C(=O)NCCO)c2cc[nH]c2n1` [Example 26, 2-{[2-({5-[(N,N-dimethylglycyl)amino]-2-methylphenyl}amino)-1H-pyrrolo[2,3-d]pyrimidin-4-yl]amino}-N-(2-hydroxyethyl)benzamide]: the IC50 in experiment [1] is greater than 500 nM; against human IR (hIR) it was 1.26 to 3.98 nM; on human IGF1R (hIGF1R), 5.01 to 200 nM; against ALK it was 5.01 to 200 nM.

For `Cc1ccc(NC(=O)CN(C)C)cc1Nc1nc(Nc2ccccc2C(=O)NO)c2cc[nH]c2n1` [Example 28, 2-{[2-({5-[(N,N-dimethylglycyl)amino]-2-methylphenyl}amino)-1H-pyrrolo[2,3-d]pyrimidin-4-yl]amino}-N-hydroxybenzamide], the IC50 is greater than 500 nM in experiment [1], 0.251 to 1 nM against human IR (hIR), 0.251 to 1 nM at human IGF1R (hIGF1R) and 0.251 to 1 nM against ALK.

In the case of `COc1cc(N2CCN(C(C)C)CC2)ccc1Nc1nc(Nc2cccc(C)c2C(N)=O)c2cc[nH]c2n1` [Example 31, 2-methyl-6-[(2-{[4-[4-(1-methylethyl)-1-piperazinyl]-2-(methyloxy)phenyl]amino}-1H-pyrrolo[2,3-d]pyrimidin-4-yl)amino]benzamide], the IC50 is greater than 500 nM in experiment [1], 5.01 to 158 nM against human IR (hIR), 5.01 to 200 nM on human IGF1R (hIGF1R) and 5.01 to 200 nM against ALK.

As for `CCCN1CCC=C(c2ccc(Nc3nc(Nc4ccc(C)cc4C(N)=O)c4cc[nH]c4n3)c(OC)c2)C1` [Example 33, 5-methyl-2-[(2-{[2-(methyloxy)-4-(1-propyl-1,2,5,6-tetrahydro-3-pyridinyl)phenyl]amino}-1H-pyrrolo[2,3-d]pyrimidin-4-yl)amino]benzamide], the IC50 in experiment [1] was greater than 500 nM; on human IR (hIR), 1.26 to 3.98 nM; at human IGF1R (hIGF1R), 1.26 to 3.98 nM; against ALK, 0.251 to 1 nM.

For `CCCN1CCC=C(c2ccc(Nc3nc(Nc4ccc(OC)cc4C(N)=O)c4cc[nH]c4n3)c(OC)c2)C1` [Example 38, 5-(methyloxy)-2-[(2-{[2-(methyloxy)-4-(1-propyl-1,2,5,6-tetrahydro-3-pyridinyl)phenyl]amino}-1H-pyrrolo[2,3-d]pyrimidin-4-yl)amino]benzamide], the IC50 in experiment [1] is 100 to 500 nM; on human IR (hIR), 1.26 to 3.98 nM; at human IGF1R (hIGF1R) it was 1.26 to 3.98 nM; at ALK, 0.251 to 1 nM.

`CN(C)CC(=O)Nc1ccc(OC(F)(F)F)c(Nc2nc(Nc3ccc(F)cc3C(N)=O)c3cc[nH]c3n2)c1` [Example 63, 2-{[2-({5-[(N,N-dimethylglycyl)amino]-2-[(trifluoromethyl)oxy]phenyl}amino)-1H-pyrrolo[2,3-d]pyrimidin-4-yl]amino}-5-fluorobenzamide]: the IC50 is 100 to 500 nM in experiment [1], 0.251 to 1 nM on human IR (hIR), 0.251 to 1 nM on human IGF1R (hIGF1R) and 1.26 to 3.98 nM against ALK.

On to `Cc1ccc(NC(=O)CN(C)C)cc1Nc1nc(Nc2cc(F)ccc2C(N)=O)c2cc[nH]c2n1` [Example 85, 2-{[2-({5-[(N,N-dimethylglycyl)amino]-2-methylphenyl}amino)-1H-pyrrolo[2,3-d]pyrimidin-4-yl]amino}-4-fluorobenzamide], for which the IC50 in experiment [1] was greater than 500 nM; at human IR (hIR) it was 0.251 to 1 nM; on human IGF1R (hIGF1R), 1.26 to 3.98 nM; against ALK, 5.01 to 200 nM.

For `CCCN1CCC=C(c2ccc(Nc3nc(Nc4cc(F)c(F)cc4C(N)=O)c4cc[nH]c4n3)c(OC)c2)C1` [Example 95, 4,5-difluoro-2-[(2-{[2-(methyloxy)-4-(1-propyl-1,2,5,6-tetrahydro-3-pyridinyl)phenyl]amino}-1H-pyrrolo[2,3-d]pyrimidin-4-yl)amino]benzamide], the IC50 in experiment [1] is 100 to 500 nM; against human IR (hIR) it was 0.251 to 1 nM; at human IGF1R (hIGF1R), 0.251 to 1 nM; on ALK, 0.251 to 1 nM.

As for `COc1cc(C2=CCCN(C(C)C)C2)ccc1Nc1nc(Nc2cc(F)c(F)cc2C(N)=O)c2cc[nH]c2n1` [Example 96, 4,5-difluoro-2-[(2-{[4-[1-(1-methylethyl)-1,2,5,6-tetrahydro-3-pyridinyl]-2-(methyloxy)phenyl]amino}-1H-pyrrolo[2,3-d]pyrimidin-4-yl)amino]benzamide], the IC50 in experiment [1] is less than 100 nM; on human IR (hIR), 0.251 to 1 nM; on human IGF1R (hIGF1R), 0.251 to 1 nM; on ALK, 0.251 to 1 nM.
